Laboratory results as given in ChEMBL document CHEMBL5537193, “Multitargeting HDAC Inhibitors Containing a RAS/RAF Protein Interfering Unit” (J Med Chem, 2024).
Active and inactive are the calls of the source. The calls are words filed in the database; no cut-off is given here.

Tests used:
A549 = assay: cells; conditions: Homo sapiens, A549, 72 h
Description: Cytotoxicity against human A549 cells assessed as inhibition of cell growth incubated for 72 hrs by MTT assay

NCI-H1975 = assay: cells; conditions: Homo sapiens, NCI-H1975, 72 h
Description: Cytotoxicity against human NCI-H1975 cells assessed as inhibition of cell growth incubated for 72 hrs by MTT assay

A-431 = assay: cells; conditions: Homo sapiens, A-431, 72 h
Description: Cytotoxicity against human A-431 cells assessed as inhibition of cell growth incubated for 72 hrs by MTT assay

SGC-7901 = assay: cells; conditions: Homo sapiens, SGC-7901, 72 h
Description: Cytotoxicity against human SGC-7901 cells assessed as inhibition of cell growth incubated for 72 hrs by MTT assay

HepG2 = assay: cells; conditions: Homo sapiens, HepG2, 72 h
Description: Cytotoxicity against human HepG2 cells assessed as inhibition of cell growth incubated for 72 hrs by MTT assay

MCF7 = assay: cells; conditions: Homo sapiens, MCF7, 72 h
Description: Cytotoxicity against human MCF7 cells assessed as inhibition of cell growth incubated for 72 hrs by MTT assay

L02 = assay: cells; conditions: Homo sapiens, L02, 72 h
Description: Cytotoxicity against human L02 cells assessed as inhibition of cell growth incubated for 72 hrs by MTT assay

[1] = biological target: Serine/threonine-protein kinase PLK1 (Homo sapiens, UniProt P53350); assay: Inhibition of PLK1 (unknown origin)
PANC-1 [2] = assay: Cell cycle arrest in human PANC-1 cells assessed as accumulation of cells at GO-G1 phase at 2 uM incubated for 24 hrs by PI/RNase staining based flow cytometric analysis; assay type: functional
PANC-1 [3] = assay: Induction of apoptosis in human PANC-1 cells assessed as apoptotic cells at 2 uM incubated for 24 hrs by flow cytometric analysis relative to control; assay type: functional
HT-29 = assay: Induction of apoptosis in human HT-29 cells assessed as apoptotic ratio at 2 uM incubated for 24 hrs by flow cytometric analysis; assay type: functional
PANC-1 [4] = assay: Induction of apoptosis in human PANC-1 cells assessed as increase in Bax expression at 2 uM incubated for 24 hrs by Western blot analysis; assay type: functional, cell-based
PANC-1 [5] = assay: Induction of apoptosis in human PANC-1 cells assessed as increase in Cytochrome C expression level at 2 uM incubated for 24 hrs by Western blot analysis; assay type: functional, cell-based
PANC-1 [6] = assay: Induction of apoptosis in human PANC-1 cells assessed as increase in cleaved caspase-9 expression level at 2 uM incubated for 24 hrs by Western blot analysis; assay type: functional, cell-based
PANC-1 [7] = assay: Induction of apoptosis in human PANC-1 cells assessed as increase in cleaved caspase-3 expression level at 2 uM incubated for 24 hrs by Western blot analysis; assay type: functional, cell-based
PANC-1 [8] = assay: Induction of apoptosis in human PANC-1 cells assessed as increase in cleaved PARP expression level at 2 uM incubated for 24 hrs by Western blot analysis; assay type: functional, cell-based

Sequence of Serine/threonine-protein kinase PLK1 (P53350 whole entry): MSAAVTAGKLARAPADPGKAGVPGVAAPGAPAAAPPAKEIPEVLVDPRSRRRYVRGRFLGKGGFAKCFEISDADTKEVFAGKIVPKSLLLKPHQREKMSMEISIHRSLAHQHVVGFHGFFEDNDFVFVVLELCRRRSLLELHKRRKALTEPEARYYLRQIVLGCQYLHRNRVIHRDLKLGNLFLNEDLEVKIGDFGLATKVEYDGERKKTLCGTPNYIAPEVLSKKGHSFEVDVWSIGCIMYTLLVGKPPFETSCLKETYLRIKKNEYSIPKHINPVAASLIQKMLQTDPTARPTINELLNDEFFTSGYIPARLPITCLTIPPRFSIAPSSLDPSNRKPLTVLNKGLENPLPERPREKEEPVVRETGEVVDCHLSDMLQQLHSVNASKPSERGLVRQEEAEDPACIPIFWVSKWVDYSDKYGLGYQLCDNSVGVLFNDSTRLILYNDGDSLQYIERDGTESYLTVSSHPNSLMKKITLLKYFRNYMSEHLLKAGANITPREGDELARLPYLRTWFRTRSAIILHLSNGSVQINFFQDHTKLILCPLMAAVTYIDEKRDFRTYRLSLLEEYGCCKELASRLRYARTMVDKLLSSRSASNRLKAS

Structure (SMILES)	IC50 (A549) [µM]	IC50 (NCI-H1975) [µM]	IC50 (A-431) [µM]	IC50 (SGC-7901) [µM]	IC50 (HepG2) [µM]	IC50 (MCF7) [µM]	IC50 [1] [nM]	IC50 (L02) [µM]	Activity (PANC-1 [2])	Activity (PANC-1 [3]) [%]	Activity (HT-29) [%]	Activity (PANC-1 [4])	Activity (PANC-1 [5])	Activity (PANC-1 [6])	Activity (PANC-1 [7])	Activity (PANC-1 [8])
COc1cc(OC)c(/C=C/S(=O)(=O)Cc2ccc(OC)c(NCCC(=O)NO)c2)c(OC)c1	9.35	3.95	2.03	5.46	15	5.45		> 40								
COc1cc(OC)c(/C=C/S(=O)(=O)Cc2ccc(OC)c(NCCCCCC(=O)Nc3ccccc3N)c2)c(OC)c1	12.8	4.75	4.47	8.89	7.54	10.5		> 40								
COc1cc(OC)c(/C=C/S(=O)(=O)Cc2ccc(OC)c(NC(=O)CCCCC(=O)Nc3ccccc3N)c2)c(OC)c1	16.7	18.8	20.6	17.2	27.4	11.7		> 40								
COc1cc(OC)c(/C=C/S(=O)(=O)Cc2ccc(OC)c(NCCCCCC(=O)NO)c2)c(OC)c1	6.02	5.08	4.64	4.92	4.64	7.56		> 40								

Now those with a lower IC50 (SGC-7901), led by results:

IC50 (A549) [µM]	IC50 (NCI-H1975) [µM]	IC50 (A-431) [µM]	IC50 (SGC-7901) [µM]	IC50 (HepG2) [µM]	IC50 (MCF7) [µM]	IC50 [1] [nM]	Structure (SMILES)	IC50 (L02) [µM]	Activity (PANC-1 [2])	Activity (PANC-1 [3]) [%]	Activity (HT-29) [%]	Activity (PANC-1 [4])	Activity (PANC-1 [5])	Activity (PANC-1 [6])	Activity (PANC-1 [7])	Activity (PANC-1 [8])
1.74	0.67	11.4	1.87	5.89	3.78		COc1cc(OC)c(/C=C/S(=O)(=O)Cc2ccc(OC)c(NC(=O)CCCC(=O)NO)c2)c(OC)c1	> 40								
			2.89			1600	O=C(CCCCCCC(=O)Nc1ccccc1)NO [VORINOSTAT]		Active	20.5	21.4	Active	Active	Active	Active	Active
